Holding throughout (assay type): functional
In experiment [1] the test system is Candida albicans. Briefly: Antifungal activity against Candida albicans clinical isolate at 5 mg/ml after 48 hr by disk diffusion method. Particulars: read-out: DIZ.
The test system of experiment [2] is Micrococcus flavus. Briefly: Antibacterial activity against Micrococcus flavus clinical isolate by NCCLS broth microdilution method.
For experiment [3], the system named is Micrococcus flavus. Briefly: Antibacterial activity against Micrococcus flavus clinical isolate at 5 mg/ml after 24 hr by disk diffusion method. The note with it: read-out: DIZ.
Experiment [4] concerns Candida albicans. Briefly: Antifungal activity against Candida albicans clinical isolate by NCCLS broth microdilution method.
For experiment [5], the system named is Escherichia coli. The experiment is described as follows: Antibacterial activity against Escherichia coli ATCC 27853 by NCCLS broth microdilution method.
The test system of experiment [6] is Bacillus cereus. Briefly: Antibacterial activity against Bacillus cereus ATCC 6633 by NCCLS broth microdilution method.
In experiment [7] the test system is Morganella morganii. Briefly: Antibacterial activity against Morganella morganii clinical isolate at 5 mg/ml after 24 hr by disk diffusion method. The note with it: for zone of inhibition at 5000 µg/mL: read-out: DIZ.
The subject of experiment [8] is Escherichia coli. The experiment is described as follows: Antibacterial activity against Escherichia coli ATCC 27853 at 5 mg/ml after 24 hr by disk diffusion method. The note with it: for zone of inhibition at 5000 µg/mL: read-out: DIZ.
Experiment [9] concerns Bacillus cereus. The experiment is described as follows: Ratio of compound to oxacillin activity against Bacillus cereus ATCC 6633.
Experiment [10] has as its system Staphylococcus aureus. The experiment is described as follows: Antibacterial activity against Staphylococcus aureus ATCC 25923 at 5 mg/ml after 24 hr by disk diffusion method. The note with it: for zone of inhibition at 5000 µg/mL: ATCC 25923, 24 h, read-out: DIZ.
Experiment [11] deals with Micrococcus flavus. Briefly: Ratio of compound to tetracycline activity against Micrococcus flavus clinical isolate.
The test system of experiment [12] is Bacillus cereus. The experiment is described as follows: Antibacterial activity against Bacillus cereus ATCC 6633 at 5 mg/ml after 24 hr by disk diffusion method. The note with it: ATCC 6633, 24 h, read-out: DIZ.
Experiment [13] has as its system Candida albicans. The experiment is described as follows: Ratio of compound to ketoconazole activity against Candida albicans.
Experiment [14] concerns Morganella morganii. Briefly: Antibacterial activity against Morganella morganii clinical isolate by NCCLS broth microdilution method.
Experiment [15] has as its system Staphylococcus aureus. Briefly: Antibacterial activity against Staphylococcus aureus ATCC 25923 by NCCLS broth microdilution method.
The subject of experiment [16] is Candida albicans. The experiment is described as follows: Antifungal activity against Candida albicans clinical isolate at 50 ug/disk after 48 hr by disk diffusion method. The note with it: read-out: DIZ.
For experiment [17], the system named is Morganella morganii. Briefly: Antibacterial activity against Morganella morganii clinical isolate at 30 ug/disk after 24 hr by disk diffusion method. The note with it: read-out: DIZ.
The test system of experiment [18] is Bacillus cereus. The experiment is described as follows: Antibacterial activity against Bacillus cereus ATCC 6633 at 1 ug/disk after 24 hr by disk diffusion method. Particulars: ATCC 6633, 24 h, read-out: DIZ.
In experiment [19] the test system is Escherichia coli. Briefly: Antibacterial activity against Escherichia coli ATCC 27853 at 10 U/disk after 24 hr by disk diffusion method.
Experiment [20] concerns Staphylococcus aureus. Briefly: Antibacterial activity against Staphylococcus aureus ATCC 25923 at 10 ug/disc after 24 hr by disk diffusion method. The note with it: ATCC 25923, 24 h, read-out: DIZ.
The subject of experiment [21] is Micrococcus flavus. Briefly: Antibacterial activity against Micrococcus flavus clinical isolate at 30 ug/disk after 24 hr by disk diffusion method. The note with it: read-out: DIZ.

In brackets after ≈: the same amount, converted by molar mass. Activity calls are given as the source filed them. No cut-off for these calls is given here.

`Fc1ccc(Cl)cc1Br`: the zone of inhibition at 5000 µg/mL in the experiment on Candida albicans [1] turned out to be 30 mm; with Micrococcus flavus [3] it was 32 mm; in the experiment on Bacillus cereus [12], 15 mm. Further, the minimum inhibitory concentration (MIC) in the experiment on Micrococcus flavus [2], in the experiment with Candida albicans [4], against Escherichia coli [5], in the experiment on Bacillus cereus [6], in the experiment on Morganella morganii [14] and in the experiment with Staphylococcus aureus [15] was 2500 µg/mL (≈ 11.9 mM) each time. The “diameter of the inhibition zone (DIZ)” value with Morganella morganii [7], with Escherichia coli [8] and with Staphylococcus aureus [10] was “inactive” in each case. The Ratio in the experiment with Bacillus cereus [9], with Micrococcus flavus [11] and with Candida albicans [13] was 2 in each case.

As to `Fc1cc(Cl)ccc1Cl` [2,5-DICHLOROFLUOROBENZENE], the zone of inhibition at 5000 µg/mL was found to be 17 mm in the experiment on Candida albicans [1]; 14 mm in the experiment on Micrococcus flavus [3]; 12 mm with Morganella morganii [7]; 11 mm with Escherichia coli [8]; 15 mm in the experiment on Staphylococcus aureus [10]; 16 mm with Bacillus cereus [12]. Moreover, the MIC with Micrococcus flavus [2] worked out at 2500 µg/mL (≈ 15.2 mM); against Candida albicans [4], 2000 µg/mL (≈ 12.1 mM); against Escherichia coli [5], 3000 µg/mL (≈ 18.2 mM); in the experiment on Bacillus cereus [6], 2000 µg/mL (≈ 12.1 mM); with Morganella morganii [14], 2500 µg/mL (≈ 15.2 mM); against Staphylococcus aureus [15], 2500 µg/mL (≈ 15.2 mM).

For `CC(=O)N1CCN(c2ccc(OCC3COC(Cn4ccnc4)(c4ccc(Cl)cc4Cl)O3)cc2)CC1` (stereo unspecified) [KETOCONAZOLE], the zone of inhibition at 50 µg/disc with Candida albicans [16] is 16 mm.

In the case of `O=C(N[C@H](CO)[C@H](O)c1ccc([N+](=O)[O-])cc1)C(Cl)Cl` [CHLORAMPHENICOL], the zone of inhibition at 30 µg/disc in the experiment on Morganella morganii [17] was determined as 15 mm.

Regarding `Fc1cc(Cl)ccc1I`, the zone of inhibition at 5000 µg/mL in the experiment on Candida albicans [1] is 14 mm; in the experiment with Micrococcus flavus [3] it was 11 mm; with Morganella morganii [7], 13 mm; in the experiment with Escherichia coli [8] it was 11 mm; with Staphylococcus aureus [10], 12 mm; in the experiment on Bacillus cereus [12], 13 mm. Further, the MIC is 2500 µg/mL (≈ 9.75 mM) against Micrococcus flavus [2]; 2500 µg/mL (≈ 9.75 mM) against Candida albicans [4]; 2500 µg/mL (≈ 9.75 mM) in the experiment on Escherichia coli [5]; 2000 µg/mL (≈ 7.8 mM) with Bacillus cereus [6]; 2500 µg/mL (≈ 9.75 mM) with Morganella morganii [14]; 2500 µg/mL (≈ 9.75 mM) in the experiment with Staphylococcus aureus [15].

`Cc1onc(-c2ccccc2)c1C(=O)N[C@@H]1C(=O)N2[C@@H]1SC(C)(C)[C@@H]2C(=O)O` [OXACILLIN]: in the experiment on Bacillus cereus [18], the zone of inhibition at 1 µg/disc was determined as 9 mm.

As to `Fc1cc(Cl)ccc1Br`, the zone of inhibition at 5000 µg/mL with Candida albicans [1] came out at 11 mm; with Micrococcus flavus [3], 13 mm; in the experiment on Escherichia coli [8], 13 mm; in the experiment with Staphylococcus aureus [10], 14 mm; in the experiment on Bacillus cereus [12], 17 mm. Further, the MIC with Micrococcus flavus [2] was 2500 µg/mL (≈ 11.9 mM); in the experiment with Candida albicans [4], 2500 µg/mL (≈ 11.9 mM); with Escherichia coli [5], 3000 µg/mL (≈ 14.3 mM); against Bacillus cereus [6], 2000 µg/mL (≈ 9.55 mM); in the experiment on Morganella morganii [14], 2500 µg/mL (≈ 11.9 mM); against Staphylococcus aureus [15], 2500 µg/mL (≈ 11.9 mM). For the same compound, the “diameter of the inhibition zone (DIZ)” value in the experiment with Morganella morganii [7] is “inactive”.

As for `Fc1ccc(Cl)cc1I`, the zone of inhibition at 5000 µg/mL in the experiment with Candida albicans [1] amounted to 14 mm; in the experiment on Micrococcus flavus [3], 20 mm; with Morganella morganii [7], 10 mm; in the experiment with Escherichia coli [8], 10 mm; with Staphylococcus aureus [10], 13 mm; in the experiment on Bacillus cereus [12], 16 mm. The minimum inhibitory concentration (MIC) with Micrococcus flavus [2] worked out at 1500 µg/mL (≈ 5.85 mM); against Candida albicans [4] it was 2500 µg/mL (≈ 9.75 mM); with Escherichia coli [5], 3000 µg/mL (≈ 11.7 mM); against Bacillus cereus [6] it was 2000 µg/mL (≈ 7.8 mM); against Morganella morganii [14], 1500 µg/mL (≈ 5.85 mM); with Staphylococcus aureus [15], 2000 µg/mL (≈ 7.8 mM).

Regarding `CC1(C)S[C@@H]2[C@H](NC(=O)Cc3ccccc3)C(=O)N2[C@H]1C(=O)O` [PENICILLIN G], in the experiment on Escherichia coli [19], the “diameter of the inhibition zone (DIZ)” value came out at 19 mm.

Take `CC1(C)S[C@@H]2[C@H](NC(=O)[C@H](N)c3ccccc3)C(=O)N2[C@H]1C(=O)O` [AMPICILLIN]: the zone of inhibition at 10 µg/disc with Staphylococcus aureus [20] was 9 mm.

Consider `Fc1ccc(Cl)cc1Cl` [2,4-DICHLOROFLUOROBENZENE], for which the zone of inhibition at 5000 µg/mL came to 12 mm in the experiment on Candida albicans [1]; 11 mm in the experiment on Micrococcus flavus [3]; 12 mm in the experiment with Escherichia coli [8]; 15 mm in the experiment with Staphylococcus aureus [10]; 19 mm in the experiment with Bacillus cereus [12]. Besides, the minimal inhibitory concentration (MIC) against Micrococcus flavus [2] turned out to be 1500 µg/mL (≈ 9.09 mM); against Candida albicans [4], 1 µg/mL (≈ 0.00606 mM); against Escherichia coli [5], 1200 µg/mL (≈ 7.27 mM); against Bacillus cereus [6] it was 1500 µg/mL (≈ 9.09 mM); against Morganella morganii [14], 1500 µg/mL (≈ 9.09 mM); with Staphylococcus aureus [15], 1200 µg/mL (≈ 7.27 mM). Moreover, the “diameter of the inhibition zone (DIZ)” value with Morganella morganii [7] was “inactive”.

Consider `CN(C)[C@@H]1C(O)=C(C(N)=O)C(=O)[C@@]2(O)C(O)=C3C(=O)c4c(O)cccc4[C@@](C)(O)[C@H]3C[C@@H]12` [TETRACYCLINE], for which the zone of inhibition at 30 µg/disc in the experiment on Micrococcus flavus [21] was determined as 20 mm.
